Target: human PDE10A2 (Homo sapiens (Human), UniProt Q9Y233)
Assay: PDE10 fluorescence polarization (IMAP FP) inhibition assay
Type: biochemical
Settings: human PDE10A2 from transfected AD293 cells; FAM-labeled cAMP 50 nM; apparent inhibition constant; read-out: PDE10A Ki
Outline: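 Cytoplasmic lysate of AD293 cells transiently expressing human PDE10A2 (enzyme level giving 20% conversion) incubated with 50 nM FAM-cAMP in pH 7.2 Tris/MgCl2 buffer, 30 min at room temperature. IMAP binding solution added, FP read after ≥1 h; 10-point 3-fold compound titrations fitted to a four-parameter equation.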

Chain of human PDE10A2 (Q9Y233 267-1055): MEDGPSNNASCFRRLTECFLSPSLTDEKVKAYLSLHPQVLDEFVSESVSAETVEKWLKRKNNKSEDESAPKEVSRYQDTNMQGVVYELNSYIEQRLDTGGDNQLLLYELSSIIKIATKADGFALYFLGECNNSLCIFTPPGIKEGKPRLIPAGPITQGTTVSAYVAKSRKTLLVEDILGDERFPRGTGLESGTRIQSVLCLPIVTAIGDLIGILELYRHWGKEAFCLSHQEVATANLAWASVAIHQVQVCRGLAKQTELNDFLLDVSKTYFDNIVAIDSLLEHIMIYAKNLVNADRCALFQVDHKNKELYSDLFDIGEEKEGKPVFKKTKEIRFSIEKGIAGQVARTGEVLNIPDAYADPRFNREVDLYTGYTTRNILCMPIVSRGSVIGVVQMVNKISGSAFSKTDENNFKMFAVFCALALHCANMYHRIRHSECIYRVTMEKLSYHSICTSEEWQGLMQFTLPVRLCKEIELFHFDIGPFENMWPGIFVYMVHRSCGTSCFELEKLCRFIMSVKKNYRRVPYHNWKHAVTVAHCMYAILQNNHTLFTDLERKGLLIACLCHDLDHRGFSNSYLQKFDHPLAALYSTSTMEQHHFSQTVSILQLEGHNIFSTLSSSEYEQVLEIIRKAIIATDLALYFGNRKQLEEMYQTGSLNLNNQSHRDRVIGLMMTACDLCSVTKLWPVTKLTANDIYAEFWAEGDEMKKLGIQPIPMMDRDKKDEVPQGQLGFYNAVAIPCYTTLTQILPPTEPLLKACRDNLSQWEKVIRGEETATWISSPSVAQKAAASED

SMILES: COc1ccc([C@H]2C[C@@H]2COc2nc(C)ncc2-c2nnn(C(F)F)n2)nc1 [Example 237, 5-(2-(difluoromethyl)-2H-tetrazol-5-yl)-4-(((1S,2S)-2-(5-methoxypyridin-2-yl)cyclopropyl)methoxy)-2-methylpyrimidine]
- Ki: 32.9 nM

SMILES: COc1ccc([C@H]2C[C@@H]2COc2nc(C)ncc2-c2ccc(C(=O)NCC(F)(F)F)nc2)nc1 [Example 104, 5-(4-(((1S,2S)-2-(5-methoxypyridin-2-yl)cyclopropyl)methoxy)-2-methylpyrimidin-5-yl)-N-(2,2,2-trifluoroethyl)picolinamide]
- Ki: 0.67 nM

SMILES: Cc1ccc([C@H]2C[C@@H]2COc2nc(C)ncc2-c2ccc(C(F)(F)F)cc2)nc1 [Example 10, 2-methyl-4-(((1S,2S)-2-(5-methylpyridin-2-yl)cyclopropyl)methoxy)-5-(4-(trifluoromethyl)phenyl)pyrimidine]
- Ki: 5.71 nM

SMILES: Cc1ccc([C@H]2C[C@@H]2COc2nc(C)ncc2-c2ccc(C(O)C(C)C)nc2)nc1 (stereo partly drawn) [Example 139, 2-methyl-1-(5-(2-methyl-4-(((1S,2S)-2-(5-methylpyridin-2-yl)cyclopropyl)methoxy)pyrimidin-5-yl)pyridin-2-yl)propan-1-ol]
- Ki: 0.37 nM

SMILES: Cc1ccc([C@H]2C[C@@H]2COc2nc(C)ncc2-c2cnsc2)nc1 [Example 62, 4-(2-methyl-4-(((1S,2S)-2-(5-methylpyridin-2-yl)cyclopropyl)methoxy)pyrimidin-5-yl)isothiazole]
- Ki: 2.02 nM

SMILES: Cc1ccc([C@H]2C[C@@H]2COc2nc(C)ncc2-c2ccccc2OC(F)(F)F)nc1 [Example 5]
- Ki: 3.15 nM

SMILES: Cc1ncc(C2CCC3(CC2)OCCO3)c(OC[C@H]2C[C@@H]2c2ccc3ccccc3n2)n1 [Example 190, 2-((1S,2S)-2-((2-methyl-5-(1,4-dioxaspiro[4.5]decan-8-yl)pyrimidin-4-yloxy)methyl)cyclopropyl)quinoline]
- Ki: 0.06 nM

SMILES: CCc1ccc([C@H]2C[C@@H]2COc2nc(C)ncc2-c2ccc(C(C)(C)O)nc2)nc1 (single isomer, unassigned) [Example 180]
- Ki: 5.95 nM

SMILES: Cc1ccc([C@H]2C[C@@H]2COc2nc(C)ncc2C2CCCCC2)nc1 [Example 208, 5-Cyclohexyl-2-methyl-4-(((1S,2S)-2-(5-methylpyridin-2-yl)cyclopropyl)methoxy)pyrimidine]
- Ki: 2.28 nM

SMILES: Cc1ncc(-c2ccc(C(F)(F)F)nc2)c(OC[C@H]2C[C@@H]2c2ccc3ccccc3n2)n1 [Example 156, 2-((1S,2S)-2-((2-methyl-5-(6-(trifluoromethyl)pyridin-3-yl)pyrimidin-4-yloxy)methyl)cyclopropyl)quinoline]
- Ki: 0.12 nM

SMILES: Cc1ccc([C@H]2C[C@@H]2COc2nc(C)ncc2-c2ccc3ncc(C)n3c2)nc1 [Example 130, 3-methyl-6-(2-methyl-4-(((1S,2S)-2-(5-methylpyridin-2-yl)cyclopropyl)methoxy)pyrimidin-5-yl)imidazo[1,2-a]pyridine]
- Ki: 0.39 nM

SMILES: Cc1ncc(C2CCC3(CC2)OCCO3)c(OC[C@H]2C[C@H]2c2ccccn2)n1 [Example 198, 2-methyl-4-(((1S,2R)-2-(pyridin-2-yl)cyclopropyl)methoxy)-5-(1,4-dioxaspiro[4.5]decan-8-yl)pyrimidine]
- Ki: 27.6 nM

SMILES: COC(=O)c1ccc(-c2cnc(C)nc2OC[C@H]2C[C@@H]2c2ccc(C)cn2)cn1 [Example 47, methyl 5-(2-methyl-4-(((1S,2S)-2-(5-methylpyridin-2-yl)cyclopropyl)methoxy)pyrimidin-5-yl)picolinate]
- Ki: 2.2 nM

SMILES: COc1ccc([C@H]2C[C@@H]2COc2nc(C)ncc2-c2cc(=O)n(C)n2C)nc1 [Example 239, 5-(4-(((1S,2S)-2-(5-methoxypyridin-2-yl)cyclopropyl)methoxy)-2-methylpyrimidin-5-yl)-1,2-dimethyl-1,2-dihydropyrazol-3-one]
- Ki: 7.7 nM

SMILES: Cc1ccc([C@H]2C[C@@H]2COc2nc(C)ncc2-c2ccc(OC(C)C)nc2C)nc1 [Example 61, 5-(6-isopropoxy-2-methylpyridin-3-yl)-2-methyl-4-(((1S,2S)-2-(5-methylpyridin-2-yl)cyclopropyl)methoxy)pyrimidine]
- Ki: 1.51 nM

SMILES: COc1ccc([C@H]2C[C@@H]2COc2nc(C)ncc2-c2ccc(Br)cn2)nc1 [Example 86, 5-(5-bromopyridin-2-yl)-4-(((1S,2S)-2-(5-methoxypyridin-2-yl)cyclopropyl)methoxy)-2-methylpyrimidine]
- Ki: 11.6 nM

SMILES: Cc1ncc(-c2ccc(C(C)(C)O)nc2)c(OC[C@H]2C[C@@H]2c2ccc(C(F)(F)F)cn2)n1 [Example 183, 2-(5-(2-methyl-4-(((1S,2S)-2-(5-(trifluoromethyl)pyridin-2-yl)cyclopropyl)methoxy)pyrimidin-5-yl)pyridin-2-yl)propan-2-ol]
- Ki: 13.5 nM

SMILES: COc1ccc([C@H]2C[C@@H]2COc2nc(C)ncc2[C@H]2CC[C@@H](O)C2)nc1 [Example 79, (1R,3S)-3-(4-(((1S,2S)-2-(5-methoxypyridin-2-yl)cyclopropyl)methoxy)-2-methylpyrimidin-5-yl)cyclopentanol]
- Ki: 5.6 nM

SMILES: CCOC(=O)c1[nH]nnc1-c1cnc(C)nc1OC[C@H]1C[C@@H]1c1ccc(OC)cn1 [Example 248, ethyl 4-(4-(((1S,2S)-2-(5-methoxypyridin-2-yl)cyclopropyl)methoxy)-2-methylpyrimidin-5-yl)-1H-1,2,3-triazole-5-carboxylate]
- Ki: 14 nM

SMILES: CNC(=O)c1ccc(-c2cnc(C)nc2OC[C@H]2C[C@@H]2c2ccc(OC)cn2)cn1 [Example 103, 5-(4-(((1S,2S)-2-(5-methoxypyridin-2-yl)cyclopropyl)methoxy)-2-methylpyrimidin-5-yl)-N-methylpicolinamide]
- Ki: 2.35 nM

SMILES: COc1ccc([C@H]2C[C@@H]2COc2nc(C)ncc2-c2cn(C)[nH]c2=O)nc1 [Example 244, 4-(4-(((1S,2S)-2-(5-methoxypyridin-2-yl)cyclopropyl)methoxy)-2-methylpyrimidin-5-yl)-1-methyl-1,2-dihydropyrazol-3-one]
- Ki: 0.71 nM

SMILES: COc1ccc([C@H]2C[C@@H]2COc2nc(C)ncc2-c2nn[nH]n2)nc1 [Example 234, 4-(((1S,2S)-2-(5-methoxypyridin-2-yl)cyclopropyl)methoxy)-2-methyl-5-(2H-tetrazol-5-yl)pyrimidine]
- Ki: 9.43 nM

SMILES: Cc1ccc([C@H]2C[C@@H]2COc2nc(C)ncc2-c2ccc(F)c(F)c2)nc1 [Example 15, 5-(3,4-difluorophenyl)-2-methyl-4-(((1S,2S)-2-(5-methylpyridin-2-yl)cyclopropyl)methoxy)pyrimidine]
- Ki: 1.11 nM

SMILES: Cc1ccc([C@H]2C[C@@H]2COc2nc(C)ncc2[C@H]2CC[C@@](C)(O)CC2)nc1 [Example 212, (cis)1-Methyl-4-(2-methyl-4-(((1S,2S)-2-(5-methylpyridin-2-yl)cyclopropyl)methoxy)pyrimidin-5-yl)cyclohexanol]
- Ki: 12.4 nM

SMILES: Cc1ncc(C2CCC(=O)CC2)c(OC[C@H]2C[C@@H]2c2ccc3ccccc3n2)n1 [Example 191, 4-(2-methyl-4-(((1S,2S)-2-(quinolin-2-yl)cyclopropyl)methoxy)pyrimidin-5-yl)cyclohexanone]
- Ki: 0.06 nM

SMILES: Cc1ccc(-c2cnc(C)nc2OC[C@H]2C[C@@H]2c2ccc3ccccc3n2)cn1 [Example 42, 2-((1S,2S)-2-((2-methyl-5-(6-methylpyridin-3-yl)pyrimidin-4-yloxy)methyl)cyclopropyl)quinoline]
- Ki: 0.02 nM

SMILES: CCc1ccc([C@@H]2C[C@@H]2COc2nc(C)ncc2[C@H]2CC[C@H](O)CC2)nc1 [Example 196, Trans-4-(4-(((1S,2R)-2-(5-ethylpyridin-2-yl)cyclopropyl)methoxy)-2-methylpyrimidin-5-yl)cyclohexanol]
- Ki: 0.5 nM

SMILES: Cc1ccc([C@H]2C[C@@H]2COc2nc(C)ncc2[C@H]2CC[C@@H](C(C)(C)O)CC2)nc1 [Example 221, (cis)2-(4-(2-methyl-4-(((1S,2S)-2-(5-methylpyridin-2-yl)cyclopropyl)methoxy)pyrimidin-5-yl)cyclohexyl)propan-2-ol]
- Ki: 12.6 nM

SMILES: Cc1ncc(-c2ccc(C(C)(C)O)nc2)c(OC[C@@H]2C[C@H]2c2ccc(Br)cn2)n1 [Example 124, 2-(5-(4-(((1R,2R)-2-(5-bromopyridin-2-yl)cyclopropyl)methoxy)-2-methylpyrimidin-5-yl)pyridin-2-yl)propan-2-ol]
- Ki: 8.57 nM

SMILES: Cc1ccc([C@H]2C[C@@H]2COc2nc(C)ncc2-c2ccc(C(C)O)nc2)nc1 (stereo partly drawn) [Example 148, 1-(5-(2-methyl-4-(((1S,2S)-2-(5-methylpyridin-2-yl)cyclopropyl)methoxy)pyrimidin-5-yl)pyridin-2-yl)ethanol]
- Ki: 0.98 nM

SMILES: Cc1ccc([C@H]2C[C@@H]2COc2nc(C)ncc2-c2ccc(C(C)(C)O)nc2)nc1 (single isomer, unassigned) [Example 46]
- Ki: 0.06 nM

SMILES: COc1ccc([C@H]2C[C@@H]2COc2nc(C)ncc2-c2noc(CO)n2)nc1 [Example 256, (3-(4-(((1S,2S)-2-(5-methoxypyridin-2-yl)cyclopropyl)methoxy)-2-methylpyrimidin-5-yl)-1,2,4-oxadiazol-5-yl)methanol]
- Ki: 29.9 nM

SMILES: COc1ccc([C@H]2C[C@@H]2COc2nc(C)ncc2[C@H]2CC[C@@H](C(=O)O)CC2)nc1 [Example 217, cis-4-(4-(((1S,2S)-2-(5-Methoxypyridin-2-yl)cyclopropyl)methoxy)-2-methylpyrimidin-5-yl)cyclohexanecarboxylic acid]
- Ki: 5.29 nM

SMILES: Cc1ccc([C@H]2C[C@@H]2COc2nc(C)ncc2-c2cc(C)ccc2C)nc1 [Example 13, 5-(2,5-dimethylphenyl)-2-methyl-4-(((1S,2S)-2-(5-methylpyridin-2-yl)cyclopropyl)methoxy)pyrimidine]
- Ki: 0.7 nM

SMILES: CCc1ccc([C@@H]2C[C@@H]2COc2nc(C)ncc2[C@H]2CC[C@@H](O)CC2)nc1 [Example 197, (1R,4s)-4-(4-(((1S,2R)-2-(5-ethylpyridin-2-yl)cyclopropyl)methoxy)-2-methylpyrimidin-5-yl)cyclohexanol]
- Ki: 1.73 nM

— patent US9663513B2, “Pyrimidine PDE10 inhibitors” (Merck Sharp & Dohme Corp., priority 2012, dated 2017)
